Laboratory results reported in patent publication US8575091B1, “Amylin analogues and pharmaceutical compositions thereof” (Novo Nordisk A/S, priority 2012, dated 2013).
Like-named read-outs stand apart in the source and are kept apart here. Numbered stars: 1 amine (or outer) side, 2 acyl side, 3 side chain; on linkers, the order of the positions; unused ones are H or OH. Bridge positions count the residues as written; N and C are the ends. Side chains are listed from the residue outwards. Peptide text beside a SMILES is read from it. * marks the point of attachment. C20 diacid = O=C(O)CCCCCCCCCCCCCCCCCCC(=O)*; γGlu = O=C(O)[C@H](CCC(=O)[*:2])N[*:1]

Key:
[1] = molecular target: T1, human amylin receptor (amylin 3(a) receptor: human calcitonin receptor + RAMP-3) (Homo sapiens, UniProt O60896+P30988); assay: Assay (II)a functional assay, human amylin receptor (CRE luciferase, BHK cells); assay type: cell-based; conditions: for EC50: human amylin receptor functional, read-out: hAmylin-R funct. EC50
T1 construct: expressed in transfected cells
T1 sequence (P30988 25-474): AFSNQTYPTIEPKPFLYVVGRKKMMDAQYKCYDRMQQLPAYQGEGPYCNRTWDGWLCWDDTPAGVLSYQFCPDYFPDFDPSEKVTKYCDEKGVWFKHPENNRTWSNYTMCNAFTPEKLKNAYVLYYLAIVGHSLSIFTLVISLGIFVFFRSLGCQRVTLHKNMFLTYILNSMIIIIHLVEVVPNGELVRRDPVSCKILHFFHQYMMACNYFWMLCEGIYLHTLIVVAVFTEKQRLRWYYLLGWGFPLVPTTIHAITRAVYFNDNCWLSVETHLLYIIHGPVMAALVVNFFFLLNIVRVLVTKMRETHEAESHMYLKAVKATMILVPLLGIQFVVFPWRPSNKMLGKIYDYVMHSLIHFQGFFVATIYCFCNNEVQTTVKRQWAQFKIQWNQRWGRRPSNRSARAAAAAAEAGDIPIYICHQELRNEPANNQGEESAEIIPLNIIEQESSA
T1 sequence (O60896 24-148 partner): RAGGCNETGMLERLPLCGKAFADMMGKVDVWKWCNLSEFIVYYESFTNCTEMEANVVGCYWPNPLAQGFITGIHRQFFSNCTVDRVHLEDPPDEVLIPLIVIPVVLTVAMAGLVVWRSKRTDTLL

[2] = molecular target: T2, human calcitonin receptor (Homo sapiens, UniProt P30988); assay: Assay (II)a functional assay, human calcitonin receptor (CRE luciferase, BHK cells);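 also: luminescence from a CRE-driven luciferase reporter, read by single photon counting after cells were exposed to test samples for 3 h at 37 °C under 5% CO2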; assay type: cell-based; conditions: read-out: hCTR funct. EC50
T2 construct: expressed in transfected cells
T2 sequence (P30988 25-474): T1 sequence (P30988 25-474)

human amylin receptor = molecular target: T3, human amylin receptor (Homo sapiens, UniProt O60896+P30988); assay: Assay (V) binding to the human amylin receptor (SPA, 125I-rat amylin); conditions: for IC50: human amylin receptor membranes, SPA, read-out: hAmylin-R bind IC50; for Ratio hCT/hAmylin binding: human binding ratio, included for comparison
T3 construct: expressed in transfected cells
T3 sequence (P30988 25-474): T1 sequence (P30988 25-474)
T3 sequence (O60896 24-148 partner): T1 sequence (O60896 24-148 partner)
In short: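 IC50, taken as receptor affinity, came from one-site binding competition analysis of scintillation proximity counts. Amylin 3(a)/CRE-luc cell membranes (35 ng/μL final) were mixed with SPA beads (0.05 mg/well) in 50 mM Hepes pH 7.4 containing CaCl2, MgCl2, 0.1% OA and 0.02% Tween20.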

rat amylin receptor = molecular target: T4, rat amylin receptor (Rattus norvegicus, UniProt P32214+Q9JJ73); assay: Assay (VI) binding to the rat amylin receptor; conditions: rCTR bind IC50 divided by rAmylin-R bind IC50
T4 construct: expressed in transfected cells; host or cells: BHK tk'ts 13 (transient, FuGENE 6), membranes
T4 sequence (P32214 25-479 isoform P32214-2 limits assumed): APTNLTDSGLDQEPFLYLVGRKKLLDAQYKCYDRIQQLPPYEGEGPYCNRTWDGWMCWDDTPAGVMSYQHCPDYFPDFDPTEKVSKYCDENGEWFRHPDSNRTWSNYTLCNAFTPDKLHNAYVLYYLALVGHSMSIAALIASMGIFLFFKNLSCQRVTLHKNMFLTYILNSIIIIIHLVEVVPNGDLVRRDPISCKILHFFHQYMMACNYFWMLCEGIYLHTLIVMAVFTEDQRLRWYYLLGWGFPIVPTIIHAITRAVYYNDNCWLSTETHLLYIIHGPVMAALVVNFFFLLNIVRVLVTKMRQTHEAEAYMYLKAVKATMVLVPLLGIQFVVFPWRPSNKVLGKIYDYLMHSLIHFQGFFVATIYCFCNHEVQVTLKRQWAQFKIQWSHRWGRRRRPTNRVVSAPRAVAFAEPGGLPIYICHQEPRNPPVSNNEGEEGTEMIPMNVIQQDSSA
T4 sequence (Q9JJ73 23-147 partner): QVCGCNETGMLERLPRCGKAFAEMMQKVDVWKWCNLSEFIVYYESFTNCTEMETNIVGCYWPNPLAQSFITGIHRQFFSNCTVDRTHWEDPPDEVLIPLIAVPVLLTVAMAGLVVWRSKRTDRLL
Protocol: Assay (VI)—Determination of the Binding to the Rat Amylin Receptor
The assay was performed as described above (Assay (V)—Determination of binding to the human amylin receptor) with the exception that we used membranes prepared from BHK tk'ts 13 cells that were transiently transfected with the rat calcitonin receptor rat RAMP 3 at an equimolar ratio […]. The BHK tk'ts 13 cells were transiently transfected with rat calcitonin receptor using FuGENE® 6 (Roche), according to the manufacturer's recommendations. Cells were grown in DMEM with 10% FBS and 1% Pen/Strep. Approximately 48 hours after transfection, the cells were harvested and membranes were prepared.

[3] = molecular target: T2, human calcitonin receptor; assay: Assay (VII) binding to the human calcitonin receptor (SPA, 125I-Calcitonin); conditions: read-out: hCTR bind IC50;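 also: cell membranes coupled to SPA beads, competitive displacement read by scintillation counting, IC50 derived from a one-site competition fit as a measure of receptor affinity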
[4] = Table 6, human functional selectivity (hCTR EC50 / hAmylin-R EC50)
[5] = Table 6a, human functional selectivity (hCTR EC50 / hAmylin-R EC50), at least 5
[6] = Table 6j, hCTR funct. EC50 / hAmylin-R funct. EC50
[7] = Table 6k, hCTR funct. EC50 / hAmylin-R funct. EC50

| Ratio hCT/hAmylin funct. [1, 4] | Ratio hCT/hAmylin funct. [1, 5] | Ratio hCT/hAmylin funct. ([1]; Table 6i, hCTR funct. EC50 / hAmylin-R funct. EC50) | EC50 ([1]; Table 6i) | Ratio hCT/hAmylin funct. [1, 6] | Ratio hCT/hAmylin funct. [1, 7] | EC50 [2] | IC50 (human amylin receptor) | Ratio rCT/rAmylin binding (rat amylin receptor; Table 7b) | Ratio rCT/rAmylin binding (rat amylin receptor) | IC50 [3] | EC50 ([1]; Table 6j) | Ratio rCT/rAmylin binding (rat amylin receptor; Table 7c) | Ratio hCT/hAmylin binding (human amylin receptor) | Ratio hCT/hAmylin funct. ([1]; hCTR funct. EC50 divided by hAmylin-R funct. EC50) | SMILES |
| --- | --- | --- | --- | --- | --- | --- | --- | --- | --- | --- | --- | --- | --- | --- | --- |
| 6.6 | 6.6 | 6.6 | 0.05 nM | 6.6 | 6.6 | 0.327 nM | 0.1 nM | 34.0 | 34.0 | 1.09 nM | – | – | – | – | CC[C@H](C)[C@H](NC(=O)[C@H](C)NC(=O)CNC(=O)[C@H](Cc1ccccc1)NC(=O)[C@H](CC(N)=O)NC(=O)[C@@H]1CCCN1C(=O)[C@H](CO)NC(=O)[C@H](CO)NC(=O)[C@H](Cc1c[nH]cn1)NC(=O)[C@H](CCCNC(=N)N)NC(=O)[C@H](CC(C)C)NC(=O)[C@H](Cc1ccccc1)NC(=O)[C@H](CCC(=O)O)NC(=O)[C@H](C)NC(=O)[C@H](CC(C)C)NC(=O)[C@H](CCCNC(=N)N)NC(=O)[C@H](CCC(N)=O)NC(=O)[C@@H](NC(=O)[C@H](C)NC(=O)[C@@H]1CSSC[C@H](NC(=O)[C@H](CCCCN)NC(=O)CC[C@H](NC(=O)CCCCCCCCCCCCCCCCCCC(=O)O)C(=O)O)C(=O)N[C@@H](CC(N)=O)C(=O)N[C@@H]([C@@H](C)O)C(=O)N[C@@H](C)C(=O)N[C@@H]([C@@H](C)O)C(=O)N1)[C@@H](C)O)C(=O)N1CCC[C@H]1C(=O)N[C@@H](CO)C(=O)N[C@@H](CO)C(=O)N[C@H](C(=O)N[C@@H](CC(N)=O)C(=O)N[C@H](C(=O)NCC(=O)N1CCC[C@H]1C(=O)N[C@@H](CC(N)=O)C(=O)N[C@H](C(=O)N[C@@H](Cc1ccc(O)cc1)C(N)=O)[C@@H](C)O)C(C)C)[C@@H](C)O [Example 32] ({C20 diacid-γGlu}-KCNTATCATQRLAEFLRHSSPNFGAIPSSTNVGPNTY-NH2; disulfide 2-7) |
| 8.4 | 8.4 | – | – | 8.4 | 8.4 | 2.62 nM | 1.14 nM | 52.0 | 52.0 | 73.4 nM | 0.313 nM | 52.0 | – | – | CC[C@H](C)[C@H](NC(=O)[C@H](C)NC(=O)CNC(=O)[C@H](Cc1ccccc1)NC(=O)[C@H](CC(N)=O)NC(=O)[C@@H]1CCCN1C(=O)[C@H](CO)NC(=O)[C@H](CO)NC(=O)[C@H](Cc1c[nH]cn1)NC(=O)[C@H](CCCNC(=N)N)NC(=O)[C@H](CC(C)C)NC(=O)[C@H](Cc1ccccc1)NC(=O)[C@H](CC(N)=O)NC(=O)[C@H](C)NC(=O)[C@H](CC(C)C)NC(=O)[C@H](CCCNC(=N)N)NC(=O)[C@H](CCC(N)=O)NC(=O)[C@@H](NC(=O)[C@H](C)NC(=O)[C@@H]1CSSC[C@H](NC(=O)[C@H](CCCCN)NC(=O)CC[C@H](NC(=O)CCCCCCCCCCCCCCCCCCC(=O)O)C(=O)O)C(=O)N[C@@H](CC(N)=O)C(=O)N[C@@H]([C@@H](C)O)C(=O)N[C@@H](C)C(=O)N[C@@H]([C@@H](C)O)C(=O)N1)[C@@H](C)O)C(=O)N1CCC[C@H]1C(=O)N[C@@H](CO)C(=O)N[C@@H](CO)C(=O)N[C@H](C(=O)N[C@@H](CC(N)=O)C(=O)N[C@H](C(=O)NCC(=O)N[C@@H](CO)C(=O)N[C@@H](CCCCN)C(=O)N[C@H](C(=O)N[C@@H](Cc1ccc(O)cc1)C(N)=O)[C@@H](C)O)C(C)C)[C@@H](C)O [Example 34] |
| 0.8 | – | – | – | – | – | – | – | – | 3.0 | – | – | – | 1.2 | – | CC[C@H](C)[C@H](NC(=O)[C@H](C)NC(=O)CNC(=O)[C@H](Cc1ccccc1)NC(=O)[C@H](CC(N)=O)NC(=O)[C@@H]1CCCN1C(=O)[C@H](CO)NC(=O)[C@H](CO)NC(=O)[C@H](Cc1c[nH]cn1)NC(=O)[C@H](CCCNC(=N)N)NC(=O)[C@H](CC(C)C)NC(=O)[C@H](Cc1ccccc1)NC(=O)[C@H](Cc1c[nH]cn1)NC(=O)[C@H](C)NC(=O)[C@H](CC(C)C)NC(=O)[C@H](CCCNC(=N)N)NC(=O)[C@H](CCC(N)=O)NC(=O)[C@@H](NC(=O)[C@H](C)NC(=O)[C@@H]1CSSC[C@H](NC(=O)[C@@H](N)CCCCNC(=O)CC[C@H](NC(=O)CCCCCCCCCCCCCCCCCCC(=O)O)C(=O)O)C(=O)N[C@@H](CC(N)=O)C(=O)N[C@@H]([C@@H](C)O)C(=O)N[C@@H](C)C(=O)N[C@@H]([C@@H](C)O)C(=O)N1)[C@@H](C)O)C(=O)N1CCC[C@H]1C(=O)N[C@@H](CO)C(=O)N[C@@H](CO)C(=O)N[C@H](C(=O)N[C@@H](CC(N)=O)C(=O)N[C@H](C(=O)NCC(=O)N1CCC[C@H]1C(=O)N[C@@H](CC(N)=O)C(=O)N[C@H](C(=O)N1CCC[C@H]1C(N)=O)[C@@H](C)O)C(C)C)[C@@H](C)O [Example 115] (H-K([γGlu-C20 diacid])CNTATCATQRLAHFLRHSSPNFGAIPSSTNVGPNTP-NH2; disulfide 2-7 (inferred); N-terminus and C-terminus assumed) |
| 1.2 | – | – | – | – | – | – | – | – | 3.1 | – | – | – | 2.1 | 1.2 | CC[C@H](C)[C@H](NC(=O)[C@@H]1CCCN1C(=O)CNC(=O)[C@H](Cc1ccccc1)NC(=O)[C@H](CC(N)=O)NC(=O)[C@@H]1CCCN1C(=O)[C@H](CO)NC(=O)[C@H](CO)NC(=O)[C@H](Cc1c[nH]cn1)NC(=O)[C@H](CCCNC(=N)N)NC(=O)[C@H](CC(C)C)NC(=O)[C@H](Cc1ccccc1)NC(=O)[C@H](CCC(=O)O)NC(=O)[C@H](C)NC(=O)[C@H](CC(C)C)NC(=O)[C@H](CCCNC(=N)N)NC(=O)[C@H](CCC(N)=O)NC(=O)[C@@H](NC(=O)[C@H](C)NC(=O)[C@@H]1CSSC[C@H](NC(=O)[C@H](CCCCN)NC(=O)CC[C@H](NC(=O)CCCCCCCCCCCCCCCCCCC(=O)O)C(=O)O)C(=O)N[C@@H](CC(N)=O)C(=O)N[C@@H]([C@@H](C)O)C(=O)N[C@@H](C)C(=O)N[C@@H]([C@@H](C)O)C(=O)N1)[C@@H](C)O)C(=O)N[C@@H](CC(C)C)C(=O)N1CCC[C@H]1C(=O)N1CCC[C@H]1C(=O)N[C@H](C(=O)N[C@@H](CC(N)=O)C(=O)N[C@H](C(=O)NCC(=O)N[C@@H](CO)C(=O)N[C@@H](CC(N)=O)C(=O)N[C@H](C(=O)N1CCC[C@H]1C(N)=O)[C@@H](C)O)C(C)C)[C@@H](C)O [Example 4] ({C20 diacid-γGlu}-KCNTATCATQRLAEFLRHSSPNFGPILPPTNVGSNTP-NH2; disulfide 2-7) |
